Source: PMC9643456, “Matching amino acids membrane preference profile to improve activity of antimicrobial peptides” (Communications Biology, 2022)
Values after ≈ are worked out from the molar mass of the structure shown. Square brackets hold non-standard residues; d marks the D form. Peptide text beside a SMILES is read from it.

Experiments:
A. baumannii strains = test: microbe, parasite or virus in culture
DMPC:DMPG liposomes = test: Isothermal titration calorimetry, peptide-liposome interaction; type: binding; conditions: ITC, PBS, 37 °C; run shown in Fig. 2a or run not numbered
Method: Liposomes were prepared using 1,2-dimyristoyl-sn-glycero-3-(phospho-rac-(1-glycerol)) (sodium salt) (DMPG) (Avanti, Alabama, USA); 1,2-dimyristoyl-sn-glycero-3-phosphocholine (DMPC) (Avanti); and cholesterol (Sigma, Darmstadt, Germany) were used. Bacterial membrane mimic DMPC/DMPG (7/3) unilamellar vesicles (LUVs), and mammalian membrane mimic DMPC/cholesterol (10/1) vesicles with 100-nm diameters were prepared using the freeze-thaw and extrusion method. Lipids were mixed and dissolved in methanol in round-bottomed flasks then evaporated and freeze-dried overnight, yielding a thin layer of lipid covering the glass wall. PBS was added to the lipid layer, after which the PBS-lipid layer was vortexed then frozen in liquid nitrogen and thawed in 50 °C water repeatedly until no visible layer remained. LiposoFast Liposome Factory Basic unit with stabilizer (Avestin, Ottawa, Canada) was then used to extrude the liposomes 50 times through a polycarbonate membrane filter (pore diameter, 100 nm; filter diameter, 0.75 inches) (Avestin). For circular dichroism, isothermal titration calorimetry, tryptophan fluorescence, and dynamic light scattering experiments, liposomes were reconstructed and resuspended in PBS (Welgene Inc, Gyeongsangbuk-do, Korea).
PC/PG liposome stock solutions and peptide solutions were diluted in PBS and degassed for 30 min. Peptide solutions (2 ml, 40 μM) were then loaded into a VP-ITC MicroCalorimeter (MicroCal, Northampton, USA). Liposome samples (600 μl, 2000 μM) were injected into the VP-ITC using a syringe. Measurement parameters were as follows: cell temperature, 37 °C; total injections, 30; reference power, 10; initial delay, 300; stirring speed, 300; edit mode, 10.0/12.0/200/2. Liposome solution (10 μl) was injected into the peptide solution 30 times. Each experiment was performed in duplicate. The results were calculated using MicroCal analysis.

MDR P. aeruginosa = test: microbe, parasite or virus in culture
Summary of the method: (§1)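 Broth microdilution per CLSI in cation-adjusted Mueller–Hinton broth with calcium (50 mg/L) and magnesium (10 mg/L); midlog bacteria at final 5 × 10^5 CFU/ml, 18 h at 37 °C. MIC is the lowest peptide concentration without visible turbidity; triplicate, with meropenem and colistin as control antibiotics.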

MDR E. faecalis = test: microbe, parasite or virus in culture
Summary of the method: as §1

MDR A. baumannii = test: microbe, parasite or virus in culture
Summary of the method: as §1

MDR S. aureus = test: microbe, parasite or virus in culture
Summary of the method: as §1

[1] = CAMHB plus 0.2% bovine serum albumin and 0.01% acetic acid, values marked * in Table 2

CC[C@@H](C)[C@@H](NC(=O)[C@@H](Cc1c[nH]c2ccccc12)NC(=O)[C@H](NC(=O)[C@@H](CC(C)C)NC(=O)[C@H](N)Cc1c[nH]c2ccccc12)C(C)C)C(=O)N[C@H](Cc1c[nH]c2ccccc12)C(=O)N[C@H](CCCNC(=N)N)C(=O)N[C@H](CCCNC(=N)N)C(=O)N[C@H](CCCNC(=N)N)C(N)=O [WCopW29] (H-[dW][dL][dV][dW][dI][dW][dR][dR][dR]-NH2)
Number of A. baumannii strains at MIC (μM) 0.63 (A. baumannii strains; of 30 strains): 3 | Number of A. baumannii strains at MIC (μM) 1.25 (A. baumannii strains; of 30 strains): 25 | Number of A. baumannii strains at MIC (μM) 2.5 (A. baumannii strains; of 30 strains): 2 | Number of A. baumannii strains at MIC (μM) 5 (A. baumannii strains; of 30 strains): 0 | Number of A. baumannii strains at MIC (μM) 10 (A. baumannii strains; of 30 strains): 0 | Number of A. baumannii strains at MIC (μM) ≤0.31 (A. baumannii strains; of 30 strains): 0 | Number of A. baumannii strains at MIC (μM) ≥20 (A. baumannii strains; of 30 strains): 0 | MIC, A. baumannii ATCC 17978 (A. baumannii strains; strains, 18 h): 2.5 µM (≈ 3.42 µg/mL) | MIC, A. baumannii ATCC BBA 1605 (A. baumannii strains; strains, 18 h): 0.63 µM (≈ 0.863 µg/mL) | MIC, A. baumannii Isolated strain 1 (A. baumannii strains; strains, 18 h): 1.25 µM (≈ 1.71 µg/mL) | MIC, A. baumannii Isolated strain 3 (A. baumannii strains; strains, 18 h): 2.5 µM (≈ 3.42 µg/mL) | MIC, A. baumannii Isolated strain 6 (A. baumannii strains; strains, 18 h): 1.25 µM (≈ 1.71 µg/mL) | MIC, A. baumannii Isolated strain 10 (A. baumannii strains; strains, 18 h): 1.25 µM (≈ 1.71 µg/mL) | MIC, A. baumannii Isolated strain 14 (A. baumannii strains; strains, 18 h): 1.25 µM (≈ 1.71 µg/mL) | MIC, A. baumannii Isolated strain 15 (A. baumannii strains; strains, 18 h): 1.25 µM (≈ 1.71 µg/mL) | MIC, A. baumannii Isolated strain 16 (A. baumannii strains; strains, 18 h): 1.25 µM (≈ 1.71 µg/mL) | MIC, A. baumannii Isolated strain 19 (A. baumannii strains; strains, 18 h): 1.25 µM (≈ 1.71 µg/mL) | MIC, A. baumannii Isolated strain 22 (A. baumannii strains; strains, 18 h): 1.25 µM (≈ 1.71 µg/mL) | MIC, A. baumannii Isolated strain 39 (A. baumannii strains; strains, 18 h): 1.25 µM (≈ 1.71 µg/mL) | MIC, A. baumannii Isolated strain 44 (A. baumannii strains; strains, 18 h): 1.25 µM (≈ 1.71 µg/mL) | MIC, A. baumannii Isolated strain 66 (A. baumannii strains; strains, 18 h): 1.25 µM (≈ 1.71 µg/mL) | MIC, A. baumannii Isolated strain 68 (A. baumannii strains; strains, 18 h): 1.25 µM (≈ 1.71 µg/mL) | MIC, A. baumannii Isolated strain 69 (A. baumannii strains; strains, 18 h): 1.25 µM (≈ 1.71 µg/mL) | MIC, A. baumannii Isolated strain 71 (A. baumannii strains; strains, 18 h): 1.25 µM (≈ 1.71 µg/mL) | MIC, A. baumannii Isolated strain 76 (A. baumannii strains; strains, 18 h): 1.25 µM (≈ 1.71 µg/mL) | MIC, A. baumannii Isolated strain 80 (A. baumannii strains; strains, 18 h): 0.63 µM (≈ 0.863 µg/mL) | MIC, A. baumannii Isolated strain 82 (A. baumannii strains; strains, 18 h): 1.25 µM (≈ 1.71 µg/mL) | MIC, A. baumannii Isolated strain 86 (A. baumannii strains; strains, 18 h): 0.63 µM (≈ 0.863 µg/mL) | MIC, A. baumannii Isolated strain 89 (A. baumannii strains; strains, 18 h): 1.25 µM (≈ 1.71 µg/mL) | MIC, A. baumannii Isolated strain 102 (A. baumannii strains; strains, 18 h): 1.25 µM (≈ 1.71 µg/mL) | MIC, A. baumannii Isolated strain 127 (A. baumannii strains; strains, 18 h): 1.25 µM (≈ 1.71 µg/mL) | MIC, A. baumannii Isolated strain 141 (A. baumannii strains; strains, 18 h): 1.25 µM (≈ 1.71 µg/mL) | MIC, A. baumannii Isolated strain 144 (A. baumannii strains; strains, 18 h): 1.25 µM (≈ 1.71 µg/mL) | MIC, A. baumannii Isolated strain 147 (A. baumannii strains; strains, 18 h): 1.25 µM (≈ 1.71 µg/mL) | MIC, A. baumannii Isolated strain 152 (A. baumannii strains; strains, 18 h): 1.25 µM (≈ 1.71 µg/mL) | MIC, A. baumannii KCCM 40203 (A. baumannii strains; strains, 18 h): 1.25 µM (≈ 1.71 µg/mL) | MIC, A. baumannii NCCP 14654 (A. baumannii strains; strains, 18 h): 1.25 µM (≈ 1.71 µg/mL) | ΔS (DMPC:DMPG liposomes): 18.2 cal/mol deg | MIC at different cfu/ml, MDR P. aeruginosa (MDR P. aeruginosa; 2 × 10^8 cfu/ml (x400)): 5 µM (≈ 6.85 µg/mL) | MIC at killing kinetics condition, P. aeruginosa CCARM 2180 (MDR P. aeruginosa; 5 x 10^5 cfu/ml, PBS): 5 µM (≈ 6.85 µg/mL) | MIC in 0.2% albumin and 0.01% AcOH added CLSI standard condition, MDR P. aeruginosa (MDR P. aeruginosa; [1]): 5 µM | MIC at different cfu/ml, MDR E. faecalis (MDR E. faecalis; 2 × 10^8 cfu/ml (x400)): 2.5 µM (≈ 3.42 µg/mL) | MIC at killing kinetics condition, E. faecalis ATCC 51575 (MDR E. faecalis; 5 x 10^5 cfu/ml, PBS): 1.25 µM (≈ 1.71 µg/mL) | MIC in 0.2% albumin and 0.01% AcOH added CLSI standard condition, MDR E. faecalis (MDR E. faecalis; [1]): 0.31 µM | Minimum inhibitory concentrations, MDR E. faecalis (MDR E. faecalis; CLSI broth microdilution, CAMHB with 50 mg/L Ca2+, 10 mg/L Mg2+, 5 × 10^5 CFU/ml, 18 h 37 °C, triplicate, strain ATCC 51575): 1.25 µM (≈ 1.71 µg/mL) | MIC at different cfu/ml, MDR A. baumannii (MDR A. baumannii; 1 × 10^10 cfu/ml (x2000)): 10 µM (≈ 13.7 µg/mL) | MIC at different cfu/ml, MDR A. baumannii (MDR A. baumannii; 2 × 10^8 cfu/ml (x400)): 2.5 µM (≈ 3.42 µg/mL) | MIC at killing kinetics condition, A. baumannii ATCC BAA 1605 (MDR A. baumannii; 5 x 10^5 cfu/ml, PBS): 0.63 µM (≈ 0.863 µg/mL) | MIC at different cfu/ml, MDR S. aureus (MDR S. aureus; 1 × 10^10 cfu/ml (x2000)): 5 µM (≈ 6.85 µg/mL) | MIC at different cfu/ml, MDR S. aureus (MDR S. aureus; 2 × 10^8 cfu/ml (x400)): 2.5 µM (≈ 3.42 µg/mL) | MIC at killing kinetics condition, S. aureus KCCM 40510 (MDR S. aureus; 5 x 10^5 cfu/ml, PBS): 1.25 µM (≈ 1.71 µg/mL) | MIC in 0.2% albumin and 0.01% AcOH added CLSI standard condition, MDR S. aureus (MDR S. aureus; [1]): 0.31 µM | Minimum inhibitory concentrations, MDR S. aureus (MDR S. aureus; CLSI broth microdilution, CAMHB with 50 mg/L Ca2+, 10 mg/L Mg2+, 5 × 10^5 CFU/ml, 18 h 37 °C, triplicate, strain KCCM 40510): 1.25 µM (≈ 1.71 µg/mL) | Increase of MIC when the S. aureus concentration was increased 200-fold (MDR S. aureus; S. aureus): twofold | MIC at TM potential condition, S. aureus KCCM 40510 (MDR S. aureus; bacteria OD 0.1 (5 x 10^7 cfu/ml), CAMHB, 1% DMSO): 2 µM (≈ 2.74 µg/mL)
